Among the test systems are COLO 205 colon; KM12 colon; NCI-H522 lung; OVCAR-8 ovarian; RPMI-8226 leukemia; SK-OV-3 ovarian; UO-31 renal; HCC-2998 colon.
Common to all, as to test: growth of human tumour cells (NCI), 48 h

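Cells were grown in 96-well plates and exposed to each compound for 48 hours at five concentrations; endpoints were interpolated linearly between bracketing concentrations, or set to the highest concentration if not reached. At the GI50, growth is halved. Definition used: TGI = concentration required for complete inhibition of growth.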

For `COc1cc2ccc(CC(N)=O)cc2cc1OC`, the TGI in the experiment on COLO 205 colon, with KM12 colon, in the experiment with NCI-H522 lung, in the experiment on OVCAR-8 ovarian, in the experiment on RPMI-8226 leukemia and in the experiment with SK-OV-3 ovarian was over 100 µM each time. The same compound yielded a TGI in the experiment with UO-31 renal of over 100 µM.
With `O=C(COc1ccc(-c2nc3cc(Cl)c(Cl)cc3[nH]2)cc1)N=Nc1c(O)[nH]c2ccccc12`, the GI50 in the experiment with COLO 205 colon was 2.29 µM; with HCC-2998 colon it was 1.35 µM; with NCI-H522 lung, 2.55 µM; with OVCAR-8 ovarian it was 1.55 µM; in the experiment with SK-OV-3 ovarian, 2.28 µM; in the experiment on UO-31 renal, over 100 µM. The TGI in the experiment on COLO 205 colon was over 100 µM; in the experiment with HCC-2998 colon, 3.75 µM; with NCI-H522 lung it was over 100 µM; in the experiment on OVCAR-8 ovarian it was over 100 µM; in the experiment on SK-OV-3 ovarian, 9.88 µM; with UO-31 renal, over 100 µM.
`Cc1cc2c(=O)cc(-c3ccc(F)cc3)oc2c(C(=O)O)c1C`: the TGI with COLO 205 colon, in the experiment with KM12 colon, with NCI-H522 lung, in the experiment on OVCAR-8 ovarian, with RPMI-8226 leukemia and in the experiment on SK-OV-3 ovarian was over 100 µM in each case. This compound registered a TGI in the experiment on UO-31 renal of over 100 µM.
Consider `O=C(Sc1sc(=S)sc1SC(=O)c1ccccc1)c1ccccc1`, for which the TGI in the experiment with COLO 205 colon, in the experiment on HCC-2998 colon, with KM12 colon, with NCI-H522 lung, in the experiment with OVCAR-8 ovarian and in the experiment with RPMI-8226 leukemia was over 100 µM throughout. This compound gave a TGI in the experiment on SK-OV-3 ovarian of 41.4 µM.
On to `CCOP(=O)(CC(=O)C1=C(O)C(CCCCNC(=O)OC(C)(C)C)N(Cc2ccccc2)C1=O)OCC` (configuration not stated), for which the TGI in the experiment on COLO 205 colon, in the experiment with HCC-2998 colon, in the experiment with KM12 colon, with NCI-H522 lung, with OVCAR-8 ovarian and in the experiment with RPMI-8226 leukemia was over 100 µM in each case. In addition, the TGI in the experiment with SK-OV-3 ovarian and with UO-31 renal was over 100 µM throughout.
Take `CCN(CC)CCC(=O)/C=C/c1ccc(C)cc1`: the TGI with COLO 205 colon is 16.8 µM; with HCC-2998 colon, 32.6 µM; in the experiment with KM12 colon, 7.98 µM; with OVCAR-8 ovarian it was 32.4 µM; with RPMI-8226 leukemia it was over 100 µM; with SK-OV-3 ovarian, 35.1 µM. In addition, in the experiment on UO-31 renal, the TGI came out at 29.8 µM.
As for `COc1cc2c(cc1OC)[C@@H]([C@H](O)c1ccccc1)NCC2`, the TGI in the experiment on COLO 205 colon, in the experiment with HCC-2998 colon, with KM12 colon, in the experiment on NCI-H522 lung, with OVCAR-8 ovarian and in the experiment with RPMI-8226 leukemia was over 100 µM each time. Further, the TGI with SK-OV-3 ovarian and with UO-31 renal was over 100 µM in each case.
Regarding `C/C=C1\CCC2c3[nH]c4ccccc4c3CCN2C1` (configuration not stated), the TGI in the experiment on KM12 colon, in the experiment with NCI-H522 lung, in the experiment with OVCAR-8 ovarian, with SK-OV-3 ovarian and in the experiment on UO-31 renal was over 100 µM each time.
Take `CCCCCCCCCCCCCCNCC(OCC)OCC`: the TGI with COLO 205 colon was determined as 28 µM; with HCC-2998 colon it was 27.3 µM; in the experiment with KM12 colon it was 22.2 µM; in the experiment with NCI-H522 lung, 19.9 µM; in the experiment on OVCAR-8 ovarian, 40.4 µM; with SK-OV-3 ovarian it was 32.8 µM. Moreover, in the experiment with UO-31 renal, the TGI came out at 22.9 µM.
Consider `CN1C(=O)C(=CN(C)c2ccccc2)C(=O)N(C)C1=O`, for which the TGI in the experiment on HCC-2998 colon, in the experiment with KM12 colon, in the experiment with OVCAR-8 ovarian, with RPMI-8226 leukemia and in the experiment on UO-31 renal was over 100 µM in each case.
`COC(=O)C(=O)C(CC(=O)Nc1cccc(C(F)(F)F)c1)C(=O)OC` (configuration not stated): the TGI in the experiment with COLO 205 colon, in the experiment with HCC-2998 colon, with NCI-H522 lung, in the experiment on OVCAR-8 ovarian, in the experiment with RPMI-8226 leukemia and in the experiment on SK-OV-3 ovarian was over 100 µM in each case. This compound showed a TGI with UO-31 renal of over 100 µM.
For the compound `O=C(CC1C(=O)Nc2ccccc2S1(=O)=O)Nc1cccc(Cl)c1` (configuration not stated), the TGI with HCC-2998 colon stood at 32.1 µM; in the experiment on NCI-H522 lung, 31.7 µM; with OVCAR-8 ovarian, 33.1 µM; with RPMI-8226 leukemia, 24.1 µM; in the experiment with UO-31 renal, 32.9 µM.
Take `CC12CC(Sc3ccccc3N1)c1ccccc1O2` (configuration not stated): the TGI with COLO 205 colon stood at 29.9 µM; in the experiment on HCC-2998 colon it was 31 µM; in the experiment on KM12 colon, 28.6 µM; with OVCAR-8 ovarian it was 33.3 µM; in the experiment with RPMI-8226 leukemia, 48 µM; in the experiment with SK-OV-3 ovarian it was 58.4 µM. Further, the TGI with UO-31 renal came to 27.4 µM.
As to `Cc1ccc(S(=O)(=O)SCc2ccccc2)cc1`, the TGI is 27.4 µM in the experiment on COLO 205 colon; 57.4 µM in the experiment on HCC-2998 colon; 57.6 µM with KM12 colon; 20.9 µM in the experiment with NCI-H522 lung; 33.4 µM in the experiment on OVCAR-8 ovarian; 33.5 µM with RPMI-8226 leukemia. Moreover, the values for the TGI in the experiment on SK-OV-3 ovarian and with UO-31 renal were over 95.9 µM and over 100 µM, respectively.
In the case of `O=C(NC(=O)c1cc2cc(Br)cc(Br)c2oc1=O)Oc1ccccc1`, the TGI in the experiment on COLO 205 colon, with HCC-2998 colon, with KM12 colon, in the experiment with OVCAR-8 ovarian, with RPMI-8226 leukemia and in the experiment on SK-OV-3 ovarian was over 100 µM throughout. For the same compound, the TGI in the experiment with UO-31 renal was over 100 µM.

Values taken from PubChem BioAssay (NCI).
